Experimental data as given in patent US20260198495A1, “BINARY INSECTICIDE COMPOSITION AND USE THEREOF” (SHENYANG SINOCHEM AGROCHEMICALS R & D CO., LTD., priority 2022, published 2026).
In brackets after ≈: the same amount, converted by molar mass.

How the values were obtained:
Format in all cases: in vivo
[1] = tested on: Sitobion miscanthi (Fabricius); test: whole plant or invertebrate; conditions: Sitobion miscanthi, in Triticum aestivum; single pesticide, 10 mg/L; 48 hours; read-out: Measured mortality rate
Procedure: Test target: Sitobion miscanthi (Fabricius).
(§1) Preparation of the pesticide solution: according to different test requirements, the test samples were accurately weighed respectively with an electronic analytical balance. The technical pesticides were dissolved in acetone, and then diluted with 0.1% Tween 80 water into a series of pesticide solutions with a certain concentration gradient according to the experimental design dosage.
Experimental method: first, wheat seedlings with uniform and consistent Sitobion miscanthi (Fabricius) were selected, with about 30-40 insects on each pot of wheat. Then, they were evenly sprayed with the pesticide solution in the order from low dosage to high dosage according to the experimental design, with 2.5 mL for each pot and 3 replicates for each treatment. In addition, a blank control CK was set up.
The treated test materials were placed in an observation room, and the temperature, humidity and illumination of the observation room could be adjusted as needed. The number of dead and alive insects was investigated 48 hours later, and the corrected mortality rate was calculated using the Abbott's formula.
The synergism of the mixture was evaluated by the Bliss method. According to the concept of independent joint action he proposed, Bliss believes that the theoretical mortality rate P when insecticides are used in combination can be calculated by the following formula: […]
Pm is the measured mortality rate (%) of the target when the first active ingredient is at a concentration of m; and Pn is the measured mortality rate (%) of the target when the second active ingredient is used at a concentration of n.
If the actual mortality rate of the target after the two active ingredients are mixed at a certain concentration is greater than theoretical mortality rate P, it is determined that the two active ingredients have a synergistic effect when used in combination at the set concentration, and otherwise, they have an antagonistic effect.

[2] = tested on: early 2nd-instar grubs of Holotrichia diomphalia Bates; test: whole plant or invertebrate; conditions: Holotrichia diomphalia; A = compound I-72, B = tebuconazole; insect-dipping; 72 hours; read-out: LC50
Procedure: Test target: early 2nd-instar grubs of Holotrichia diomphalia Bates.
Test conditions: temperature: 24-26° C., humidity: RH 60%, and illumination: L:D=14:10
as §1
Experimental method: the activity against Holotrichia diomphalia Bates was determined by the insect-dipping method. The early 2nd-instar grubs of Holotrichia diomphalia Bates were selected. The target insects were dipped into the pesticide solution for 10 s and then taken out. Excess pesticide solution was absorbed with filter paper. […] A treatment without the pesticide was set as the blank control.
The test insects were transferred to a multi-well culture plate with fresh potato pieces and placed in an observation room, and the temperature, humidity and illumination of the observation room could be adjusted as needed. The number of dead and live insects was investigated 72 hours later. The corrected mortality rate was calculated using the Abbott's formula, and statistical analysis was performed with the DPS data processing software to obtain the toxicity regression equation and LC50 value of each single test pesticide and each mixture of different ratios.

[3] = tested on: Lipaphis erysimi (Kaltenbach); test: Joint toxicity of I-72 + pyrethrin, Example 47, Table 47; conditions: Lipaphis erysimi; A = compound I-72, B = pyrethrin; cabbage leaf spraying; 48 hours; read-out: LC50
Procedure: Test target: Lipaphis erysimi (Kaltenbach).
as §1
Experimental method: first, cabbage leaves with uniform and consistent Lipaphis erysimi (Kaltenbach) were selected, with about 30-40 insects on each leaf. Then, they were evenly sprayed with the pesticide solution in the order from low dosage to high dosage according to the experimental design, with 1.5 mL of the solution for each leaf and 3 replicates for each treatment. In addition, a blank control was set up.
The treated test materials were placed in an observation room, and the temperature, humidity and illumination of the observation room could be adjusted as needed. The number of dead and live insects was investigated 48 hours later. […] Then, the co-toxicity coefficient of each ratio was calculated using the Sun Y-P method to evaluate the mixing effect (the same as in Example 1).

[4] = tested on: 2nd-instar nymphs of Frankliniella occidentalis Pergande; test: Joint toxicity of I-72 + carbosulfan, leaf spraying, Example 22, Table 22; conditions: 2nd-instar nymphs, kidney bean leaf spraying, 48 h, A = compound I-72, B = carbosulfan, read-out: LC50
Procedure: Test subject: 2nd-instar nymphs of Frankliniella occidentalis Pergande, a sensitive strain reared indoors.
as §1, with “samples in Table 1” for “samples”
Test conditions: temperature: 25-27° C., humidity: RH 60%, and illumination: L:D=14:10
Experimental method: the spraying method was adopted. The kidney bean leaves cultivated in the greenhouse were selected, and the petioles were wrapped with moist degreased cotton and sealing film. They were evenly sprayed with the pesticide solution in the order from low dosage to high dosage according to the experimental design, placed in a 6-cm-diameter Petri dish with filter paper. After natural air-drying in the shade, the test insects were introduced, with 20 insects for each treatment and 3 replicates. In addition, a blank control was set up. […] The corrected mortality rate was calculated using the Abbott's formula, and the DPS data processing software was used for statistical analysis to calculate the toxicities (LC50 values) of the single test pesticides and the mixtures under the test ratios. […]

[5] = tested on: 2nd-instar larvae of Chilo suppressalis (Walker); test: whole plant or invertebrate; conditions: Chilo suppressalis; resistant 2nd-instar larvae, rice stalk spraying, 72 h; A = compound I-72, B = spinetoram; read-out: LC50
Procedure: In addition, a blank control was set up. The number of dead and live insects was investigated 72 hours later.

[6] = tested on: Pyrrhalta aenescens; test: Joint toxicity of I-72 + fenobucarb, insect-dipping, Example 24, Table 24; conditions: A = compound I-72, B = fenobucarb, insect-dipping, 24 hours, read-out: LC50
Procedure: Test target: Pyrrhalta aenescens, a strain reared indoors.
Experimental method: the insect-dipping method was adopted. Pyrrhalta aenescens of the same size were selected, put into an insect-dipping cage, and evenly […] the pesticide solution in the order from low dosage to high dosage according to the experimental design, with dipping for 10 s for each treatment. They were placed in a 9-cm-diameter Petri dish with filter paper. After natural air-drying in the shade, feed was added, with 3 replicates for each treatment. In addition, a blank control was set up.
The treated test materials were placed in an observation room. The total number of test insects and the number of dead insects were investigated 24 hours later. The temperature, humidity and illumination of the observation room could be adjusted as needed. The test conditions, the preparation of the pesticide solution and the evaluation method were the same as those in Example 1.

CN(C(=O)c1ccc2c(c1)OC(F)(F)O2)c1cccc(C(=O)Nc2c(Br)cc(C(F)(C(F)(F)F)C(F)(F)F)cc2OC(F)F)c1F [Compound I-72]
mortality at 10 µg/mL [1]: 64.2%
LC50 [2]: 63.4 µg/mL (≈ 85.5 µM)
LC50 [3]: 10.4 µg/mL
LC50 [4]: 2.15 µg/mL
LC50 [5]: 0.811 µg/mL (≈ 1.09 µM)
LC50 [6]: 1.33 µg/mL
